Source: PubChem BioAssay AID179 (DTP/NCI, 2004)
Several values for one entry are separate records, joined by “and”; a condition that tells them apart may be missing. Identical values can stand only once. Activity calls are given as the source filed them.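 Rule for the calls: active = compounds giving half or more protection of infected cells from virus-caused growth loss, again on retest; inactive = the rest.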

Tested on: CEM cells HIV-1 protection, formazan growth assay
Test: NCI AIDS Antiviral Assay
Conditions: for IC50: measured here: growth of uninfected CEM cells
Summary of the method: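 Soluble formazan readout of cell growth; CEM cells ± HIV-1; 5 drug concs. ≥50% protection → retest; ≥50% again = moderately active; reproducible 100% = confirmed active.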

| SMILES | EC50 | IC50 | outcome |
| --- | --- | --- | --- |
| CCOP(=O)(OCC)C(Cc1ccccc1)N=C(c1ccccc1)c1ccccc1 (centres undefined) | > 200 µM | 10.7 µM |  |
| O=S1(=O)NNC(=NCc2ccc(Cl)c(Cl)c2)c2ccccc21 |  |  | inactive |
| O=C(Oc1c(Br)cc(Br)cc1C(=O)Oc1ccccc1)C(=O)Oc1c(Br)cc(Br)cc1C(=O)Oc1ccccc1 | > 200 µM | 30.9 µM |  |
| OCC1(CNc2cc(Cl)ncn2)CCC1 | > 200 µM | > 200 µM |  |
| CC1CCN(C(C)(C)C)P(=O)(Cc2ccccc2)O1 (centres undefined) |  |  | inactive |
| CC(C)(C)C1COP(=O)(c2ccccc2)N(c2ccccc2)C1 (centres undefined) | > 200 µM | 38 µM |  |
| Cn1c(NC(=O)NC23CC4CC(CC(C4)C2)C3)nc2ccccc21 | > 200 µM | > 200 µM |  |
| O=C(N/N=C\c1ccncc1)c1ccncc1 | > 200 µM | > 200 µM |  |
| CC1CC(C#N)=C2NCCN2C1=O (centres undefined) | > 200 µM | > 200 µM |  |
| COc1cccc2c1C(=O)c1c(O)c3c(c(O)c1C2=O)C[C@@](O)(C(C)=O)C[C@@H]3OC1CC(N(C)C)C(O)C(C)O1 (some centres undefined) |  |  | inactive |
| c1cc2nnc1SCCSCCCSCCS2 | > 200 µM | 182 µM |  |
| COc1cccc(NC(=O)CC(=O)n2nc(C)c(N=Nc3ccccc3F)c2C)c1 |  |  | inactive |
| N#CCc1nc(-c2cc3c(ccc4ccccc43)oc2=O)cs1 | > 200 µM | 178 µM |  |
| CCOc1ccccc1/C=C1\NC(=O)N(/C=C2\C(=O)Oc3ccccc3C2=O)C1=O | > 200 µM | 87.1 µM |  |
| Cn1c(=O)oc2cc(C(=O)CN3CCN(Cc4ccc5c(c4)OCO5)CC3)c(Cl)cc21 | > 200 µM | 178 µM |  |
| COc1ccc2nc3cccc([N+](=O)[O-])c3c(NCCC(=O)O)c2c1 | > 200 µM | 4.57 µM |  |
| COc1ccc(S(=O)(=O)NC(C)C(=O)O)cc1 (centres undefined) |  |  | inactive |
| O=C(Cc1nc2ccccc2c(=O)n1-c1c(Cl)cccc1Cl)c1ccncc1 | > 12.6 µM | > 12.6 µM |  |
| CCN1c2ccccc2-c2c3c1cc(C)cc3c1ccccc1[n+]2CC |  |  | inactive |
| C=C1CN(S(=O)(=O)c2ccc(C)cc2)CCCN(CCC)CCCN(S(=O)(=O)c2ccc(C)cc2)C1 | > 200 µM | 2.95 µM |  |
| N#Cc1c(C#N)c(-c2ccco2)n(-c2ccccc2)c1N | > 200 µM | > 200 µM |  |
| NS(=O)(=O)c1ccc(Nc2c3ccccc3nc3c(C(=O)N4CCN(CCO)CC4)ccc(Cl)c23)cc1 | > 49 µM | > 49 µM |  |
| O=C(/C=C/c1cccc(Br)c1)c1ccccc1 | > 13.2 µM | > 13.2 µM |  |
| c1ccc(NNN2NC(c3ccccc3)C2c2ccccc2)cc1 (centres undefined) | > 200 µM | > 200 µM |  |

| SMILES | EC50 | IC50 | outcome |
| --- | --- | --- | --- |
| COC(=O)C1CSC(c2csc(CCN)n2)=N1 (centres undefined) |  |  | inactive |
| Cc1cccc(C(C)(C)C)c1NC(=O)C(=O)C(c1cnc2ccccc2n1)[N+](=O)[O-] (centres undefined) | > 324 µM | 120 µM |  |
| N#C/C(=C\n1c(=S)[nH]c2ccc([N+](=O)[O-])cc21)c1nc2ccccc2s1 | > 200 µM | 102 µM |  |
| CSc1nn(C)cc2ncnc1-2 | > 200 µM | > 200 µM |  |
| O=C1NCC2(CCN(CCCC3(c4ccc(F)cc4)OCCO3)CC2)N1c1ccccc1 | > 200 µM | > 200 µM |  |
| N#C/C(=C/c1ccsc1)C(=O)c1ccccc1 | > 110 µM | > 110 µM |  |
| O=C1Nc2ccccc2C12OCCS2 (centres undefined) |  |  | inactive |
| C/C(CC(=O)NC1=CC=C(NC(=O)C/C(C)=N\Nc2ccccc2)CC1)=N/Nc1ccccc1 | > 56.2 µM | > 56.2 µM |  |
| CC1(C)CN=C(Nc2cccc(C(F)(F)F)c2)S1 | > 200 µM | 41.7 µM |  |
| N=C1N(c2ccccc2)C(=O)CC(=O)N1c1ccccc1 | > 200 µM | 53.7 µM |  |
| [Cu+2].c1nnc(N2CNCCNCN(c3nnc[n-]3)CNCCNC2)[n-]1 | > 200 µM | > 200 µM |  |
| c1ccc(Nc2cc(Nc3ccccc3)cc(Nc3ccccc3)c2)cc1 | > 200 µM | 26.3 µM |  |
| CN1C(=O)C23CCCN2C(=O)C1(C)SC(=N)S3 (centres undefined) | > 200 µM | > 200 µM |  |
| O=C(O)CSc1cc2c3ccccc3sc2c2ccccc12 | > 6.17 µM | > 6.17 µM |  |
| O=C1Sc2ccc(Cl)cc2C(=O)N2CCSC12 (centres undefined) | > 50.1 µM | > 50.1 µM |  |
| O=C(N=c1ccc2nc(=O)[nH]n(O)c-2c1)C(F)(F)F | > 200 µM | 186 µM |  |
| O=[N+]([O-])c1cccc(N=Cc2ccccc2O)c1 | > 200 µM | 91.2 µM |  |
| C=C(C)S(=O)(=O)c1ccccc1 |  |  | inactive |
| O=C1OC2CS(=O)CC2O1 (centres undefined) | > 1550 µM | > 1550 µM |  |
| CC(F)(C(N)=O)C(N)=O | > 200 µM | > 200 µM |  |
| CC(C)COP(C)(=O)C(N)(C(F)(F)F)C(F)(F)F (centres undefined) | > 200 µM | > 200 µM |  |
| COc1cc(C2SC(N)=Nc3c2c(C)nn3C(=O)c2ccccc2O)cc(OC)c1OC (centres undefined) | > 20 µM | 0.457 µM |  |
| O=C1NC(=O)c2ccc([N+](=O)[O-])c3cccc1c23 | > 0.871 µM | 0.1 µM |  |
| O=C(CSc1nnc(-c2ccc(N=Cc3ccc(Cl)cc3)cc2)o1)Nc1ccc(Cl)cc1 | > 269 µM | 141 µM |  |

| SMILES | EC50 | IC50 | outcome |
| --- | --- | --- | --- |
| COC(=O)c1nc2c(C)c(O)c(O)c([C@H](C)CCC=C(C)C)c2o1 | > 200 µM | 13.5 µM |  |
| O=C(c1ccccc1)C1C[C@H]2CO[C@H](c3ccccc3)N2C1=O (some centres undefined) | > 200 µM | 69.2 µM |  |
| Cc1ccc(S(=O)(=O)N/N=C/C=N/NS(=O)(=O)c2ccc(C)cc2)cc1 |  |  | inactive |
| O=C1OC(CCCl)(c2ccccc2)CC1CN1CCOCC1 (centres undefined) | > 692 µM | 10.5 µM |  |
| COc1ccc(C2CC(=O)c3c(OC(C)=O)cc(OC(C)=O)cc3O2)cc1OC(C)=O (centres undefined) | > 200 µM | 7.76 µM |  |
| COC(=O)/C(C#N)=C/Sc1ccccc1 |  |  | inactive |
| Cc1ncc[pH]1 (centres undefined) | > 138 µM | > 138 µM |  |
| Oc1cnc2c(O)cccc2c1 | > 200 µM | 17.8 µM |  |
| Clc1c(Cl)c(Cl)c2nn(C3CCCO3)nc2c1Cl (centres undefined) | > 200 µM | 39.8 µM |  |
| O=C(C(=Cc1ccccc1)C(=O)c1ccccc1)c1ccccc1 | > 43.7 µM | 14.5 µM |  |
| COC1/C=C\C=C(/C)C(=O)NC2=CC(=O)C(N)=C(CC(C)CC(OC)C(O)C(C)C=C(C)C1OC(N)=O)C2=O (centres undefined) | > 2 µM | 0.0661 µM |  |
| Cc1ccc(S(=O)(=O)N(CCC(=O)O)c2ccccc2)cc1 | > 200 µM | > 200 µM |  |
| CC1(C)CC2(C)OC(=N)C1(C#N)C2(C#N)C#N (centres undefined) | > 200 µM | 2.34 µM |  |
| NC1=N[C@H]2CS[C@@H](CCCCC(=O)ON3C(=O)CCC3=O)[C@H]2N1 | > 589 µM | > 589 µM |  |
| CSC1(C(=O)O)C2CCC3C2CCC31 (centres undefined) |  |  | inactive |
| O=S1(=O)N2CN3CN(C2)CN1C3 |  |  | inactive |
| COc1cc(/C=C2/SC(c3ccccc3)N(c3cc(Cl)ccc3Cl)C2=O)cc(OC)c1OC (centres undefined) | > 200 µM | 70.8 µM |  |
| Nc1nc(Cl)c(CO)c(NCC2(CO)CCC2)n1 | > 200 µM | 191 µM |  |
| CN(C)/C=C/C(=O)c1cccc(C(=O)/C=C/N(C)C)n1 | > 19.1 µM | > 19.1 µM |  |
| CC(C1=CC(=O)c2c(O)ccc(O)c2C1=O)C1=CC(=O)c2c(O)ccc(O)c2C1=O |  |  | inactive |
| Cc1csc2n/c(=N/[N+](=O)[O-])sn12 | > 138 µM | 66.1 µM |  |
| C=CCOCn1cnc2c(N)ncnc21 |  |  | inactive |
| CNC(=O)C1CCCN1C(=O)C(Cc1cnc[nH]1)NC(=O)C1CCC(=O)N1 (centres undefined) | > 200 µM | > 200 µM |  |
| O=c1[nH]c2c(O)cccc2c2cc3c(c(O)c12)OCO3 |  |  | inactive |

| SMILES | EC50 | IC50 | outcome |
| --- | --- | --- | --- |
| NC(CO)(CO)CO | > 200 µM | > 200 µM |  |
| O=C1Nc2noc(=O)nc2NO1 | > 200 µM | > 200 µM |  |
| CCCc1cc(=O)oc2c3c(cc(OC(C)C)c12)O[C@H](C)[C@H](C)[C@@H]3O | > 200 µM | 49 µM |  |
| CCCCCCCCCCCCCCCCOP(=O)(O)OP(=O)(O)OCC1OC(n2ccc(N)nc2=O)C(O)C1O (centres undefined) | 174 µM and > 100 µM |  |  |
| Cc1nccc2c1cnc1ccnn12 | > 28.2 µM | > 28.2 µM |  |
| CC1=C(/C=C/C(C)=C/C=C/C(C)=C/C=O)C(C)(C)CCC1 |  |  | inactive |
| c1cnc2c(c1)-n1cccc1C1(CCSCC1)NN2 | > 60.3 µM | > 60.3 µM |  |
| O=[N+]([O-])c1ccc(N=Nc2c(NNc3ccc([N+](=O)[O-])cn3)cc(S(=O)(=O)O)c3ccccc23)nc1 |  |  | inactive |
| O=C1C(=O)N(c2cc(Cl)ccc2Cl)C(=O)C(=O)C1c1nc2ccccc2o1 | > 24.5 µM | > 24.5 µM |  |
| CC(=O)OCC1OC(Nc2[nH]c(=O)n(C)c(=O)c2-c2csc(N)n2)C(OC(C)=O)C(OC(C)=O)C1OC(C)=O (centres undefined) |  |  | inactive |
| CC1(C)COC(c2ccccc2-c2ccccc2)=N1 | > 200 µM | 132 µM |  |
| O=c1/c(=C/c2ccccc2)sc2nc(-c3ccccc3)nn12 | > 200 µM | > 200 µM |  |
| Cc1ccc(N2C(=O)C3c4[nH]c5ccc(C)cc5c4C4CCC(C(C)(C)C)CC4C3C2=O)cc1 (centres undefined) | > 200 µM | 13.8 µM |  |
| COC1=CC(=O)c2ccccc2C1(CCC=C(C)C)C1=NC(C)(C)CO1 (centres undefined) |  |  | inactive |
| NC(=S)N/N=C1\CCCC\C1=N/NC(N)=S | > 200 µM | 17.8 µM |  |
| c1ccc([P+](Cc2cccc(C[P+](c3ccccc3)(c3ccccc3)c3ccccc3)c2)(c2ccccc2)c2ccccc2)cc1 | > 200 µM | 85.1 µM |  |
| Cc1cn(CC2(CO)CCC2)c(=O)[nH]c1=O | > 200 µM | > 200 µM |  |
| NCCc1ccc(O)c(O)c1 | > 200 µM | 132 µM |  |
| CC1(C)CC(=O)C2C(C1)OC1CC(C)(C)CC(=O)C1C2c1ccc2c(c1)OCO2 (centres undefined) | > 200 µM | 155 µM |  |
| NC(=O)CNCCS(=O)(=O)O | > 200 µM | > 200 µM |  |
| Cc1ccc2nc3cc(C)c(=O)cc-3sc2c1 | > 56.2 µM | 37.2 µM |  |
| CCOC1NC(/N=C/c2ccc(OC)cc2)=C(C#N)C1C#N (centres undefined) | > 200 µM | 24.5 µM |  |
| CCCNC(=S)NN1C2CSC1CS2 | > 178 µM | > 178 µM |  |
